These compounds were tested against Recombinant human KIF18A (1-467 His-tagged) protein (Homo sapiens (Human), UniProt Q8NI77) (assay: KIF18A Enzyme Assay: microtubule-stimulated ATPase activity (ADP-Glo)). Settings: read-out: KIF18A ATPase IC50; 30 nM KIF18A, 30 μg/mL pig microtubules, ATP at Km 75 μM, ADP-Glo luminescence.
Chain of Recombinant human KIF18A (1-467 His-tagged) protein (Q8NI77 1-467): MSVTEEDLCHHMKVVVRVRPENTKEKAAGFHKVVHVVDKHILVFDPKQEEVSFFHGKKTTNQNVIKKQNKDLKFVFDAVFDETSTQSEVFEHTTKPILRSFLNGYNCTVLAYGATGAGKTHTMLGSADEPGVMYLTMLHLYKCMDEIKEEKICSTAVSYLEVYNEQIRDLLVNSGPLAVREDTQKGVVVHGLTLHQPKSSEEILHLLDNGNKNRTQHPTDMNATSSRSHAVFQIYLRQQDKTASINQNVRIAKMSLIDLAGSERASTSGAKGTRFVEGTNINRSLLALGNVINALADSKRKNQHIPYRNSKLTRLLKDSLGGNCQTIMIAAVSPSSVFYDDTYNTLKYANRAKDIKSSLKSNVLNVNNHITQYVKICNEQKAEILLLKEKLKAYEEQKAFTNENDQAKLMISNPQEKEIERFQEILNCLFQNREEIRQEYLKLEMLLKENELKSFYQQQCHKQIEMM
Chain of Recombinant human KIF18A (1-467 His-tagged) protein (P02550 whole entry partner): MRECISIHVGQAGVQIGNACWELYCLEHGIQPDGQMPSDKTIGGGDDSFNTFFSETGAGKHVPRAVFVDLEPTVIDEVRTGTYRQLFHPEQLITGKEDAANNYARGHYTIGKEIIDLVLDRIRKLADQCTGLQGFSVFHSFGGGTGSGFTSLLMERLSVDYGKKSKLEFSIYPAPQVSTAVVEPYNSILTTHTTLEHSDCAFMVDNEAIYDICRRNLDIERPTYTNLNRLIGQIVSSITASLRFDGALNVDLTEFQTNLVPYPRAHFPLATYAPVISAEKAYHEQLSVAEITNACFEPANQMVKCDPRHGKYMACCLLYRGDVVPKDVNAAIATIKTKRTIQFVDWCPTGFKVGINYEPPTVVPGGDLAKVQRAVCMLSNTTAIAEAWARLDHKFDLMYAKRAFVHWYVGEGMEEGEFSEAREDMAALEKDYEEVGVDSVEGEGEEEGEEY
Chain of Recombinant human KIF18A (1-467 His-tagged) protein (P02554 whole entry partner): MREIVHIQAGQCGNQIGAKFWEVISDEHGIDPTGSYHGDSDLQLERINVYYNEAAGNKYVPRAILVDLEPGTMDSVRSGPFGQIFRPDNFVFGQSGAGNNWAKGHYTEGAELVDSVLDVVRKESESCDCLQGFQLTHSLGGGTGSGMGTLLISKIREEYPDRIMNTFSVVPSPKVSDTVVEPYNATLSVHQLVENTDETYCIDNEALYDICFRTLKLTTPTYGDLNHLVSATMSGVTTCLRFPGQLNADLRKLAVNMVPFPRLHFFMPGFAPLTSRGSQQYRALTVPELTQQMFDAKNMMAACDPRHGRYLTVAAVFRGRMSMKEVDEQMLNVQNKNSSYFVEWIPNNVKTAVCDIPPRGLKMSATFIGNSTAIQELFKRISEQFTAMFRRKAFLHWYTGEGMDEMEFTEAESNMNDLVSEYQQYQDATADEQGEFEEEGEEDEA
From the text: KIF18A Enzyme Assay: Microtubule-stimulated ATPase activity assay is used to measure KIF18A enzyme activity after treatment with compound. Compounds were 2-fold serially diluted in DMSO (Sigma Inc) over 22-point concentration range. […] The assay measures ADP formed from the ATPase reaction.

Compound	IC50
Cc1cc(NC(=O)c2ccc(NS(=O)(=O)CCO)cc2N2CCC3(CC2)CC3)nc(N2CC(C#N)C2)n1 [Example 11-13, N-(2-(3-Cyanoazetidin-1-yl)-6-methylpyrimidin-4-yl)-4-((2-hydroxyethyl)sulfonamido)-2-(6-azaspiro[2.5]octan-6-yl)benzamide]	67 nM
Cc1cc(NC(=O)c2ccc(NS(=O)(=O)CCO)cc2N2CCC3(CC2)CC3)nc(N2CC(C(C)(C)O)C2)n1 [Example 11-14, 4-((2-Hydroxyethyl)sulfonamido)-N-(2-(3-(2-hydroxypropan-2-yl)azetidin-1-yl)-6-methylpyrimidin-4-yl)-2-(6-azaspiro[2.5]octan-6-yl)benzamide]	172 nM
Cc1cc(NC(=O)c2ccc(NS(=O)(=O)CCO)cc2N2CCC3(CC2)CC3)nc(N2CC(C)(O)C2)n1 [Example 11-15, N-(2-(3-Hydroxy-3-methylazetidin-1-yl)-6-methylpyrimidin-4-yl)-4-((2-hydroxyethyl)sulfonamido)-2-(6-azaspiro[2.5]octan-6-yl)benzamide]	935 nM
Cc1cc(NC(=O)c2ccc(NS(=O)(=O)CCO)cc2N2CCC3(CC2)CC3)nc(N2CC(O)(C3CC3)C2)n1 [Example 11-16, N-(2-(3-Cyclopropyl-3-hydroxyazetidin-1-yl)-6-methylpyrimidin-4-yl)-4-((2-hydroxyethyl)sulfonamido)-2-(6-azaspiro[2.5]octan-6-yl)benzamide]	1010 nM
Cc1cc(NC(=O)c2ccc(NS(=O)(=O)CCO)cc2N2CCC3(CC2)CC3)nc(N2CC3(CC3)C2)n1 [Example 11-17, 4-((2-Hydroxyethyl)sulfonamido)-N-(6-methyl-2-(5-azaspiro[2.3]hexan-5-yl)pyrimidin-4-yl)-2-(6-azaspiro[2.5]octan-6-yl)benzamide]	1090 nM
Cc1cc(NC(=O)c2ccc(NS(=O)(=O)CCO)cc2N2CCC3(CC2)CC3)nc(N2CCC2)n1 [Example 11-19, N-(2-(Azetidin-1-yl)-6-methylpyrimidin-4-yl)-4-((2-hydroxyethyl)sulfonamido)-2-(6-azaspiro[2.5]octan-6-yl)benzamide]	205 nM
Cc1cc(NC(=O)c2ccc(NS(=O)(=O)CCO)cc2N2CCC3(CC2)CC3)nc(N2CC([C@H](C)O)C2)n1 [Example 11-21, (S)-N-(2-(3-(1-Hydroxyethyl)azetidin-1-yl)-6-methylpyrimidin-4-yl)-4-((2-hydroxyethyl)sulfonamido)-2-(6-azaspiro[2.5]octan-6-yl)benzamide]	704 nM
Cc1cc(NC(=O)c2ccc(NS(=O)(=O)C3CC3)cc2N2CCC3(CC2)CC3)nc(N2CC(F)(F)C2)n1 [Example 11-22, 4-(Cyclopropanesulfonamido)-N-(2-(3,3-difluoroazetidin-1-yl)-6-methylpyrimidin-4-yl)-2-(6-azaspiro[2.5]octan-6-yl)benzamide]	788 nM
Cc1cc(NC(=O)c2ccc(NS(=O)(=O)CCO)cc2N2CCC3(CC2)CC3)nc(N2CCCC2)n1 [Example 11-26, 4-((2-Hydroxyethyl)sulfonamido)-N-(6-methyl-2-(pyrrolidin-1-yl)pyrimidin-4-yl)-2-(6-azaspiro[2.5]octan-6-yl)benzamide]	71.6 nM
Cc1cc(NC(=O)c2ccc(NS(=O)(=O)CCO)cc2N2CCC3(CC2)CC3)nc(N2CCC3(CC2)CC3)n1 [Example 11-31, 4-((2-Hydroxyethyl)sulfonamido)-N-(6-methyl-2-(6-azaspiro[2.5]octan-6-yl)pyrimidin-4-yl)-2-(6-azaspiro[2.5]octan-6-yl)benzamide]	146 nM
Cc1cc(NC(=O)c2ccc(NS(=O)(=O)CCO)cc2N2CCC3(CC2)CC3)nc(N2CC3C[C@]3(O)C2)n1 (stereo partly drawn) [Example 11-32, N-(2-((1R)-1-Hydroxy-3-azabicyclo[3.1.0]hexan-3-yl)-6-methylpyrimidin-4-yl)-4-((2-hydroxyethyl)sulfonamido)-2-(6-azaspiro[2.5]octan-6-yl)benzamide]	193 nM
Cc1cc(NC(=O)c2ccc(NS(=O)(=O)CCO)cc2N2CCC3(CC2)CC3)nc(N2CCC(C#N)CC2)n1 [Example 11-33, N-(2-(4-Cyanopiperidin-1-yl)-6-methylpyrimidin-4-yl)-4-((2-hydroxyethyl)sulfonamido)-2-(6-azaspiro[2.5]octan-6-yl)benzamide]	88 nM
Cc1cc(NC(=O)c2ccc(NS(=O)(=O)CCO)cc2N2CCC3(CC2)CC3)nc(N2CCC[C@@H](C#N)C2)n1 [Example 11-34, (R)-N-(2-(3-Cyanopiperidin-1-yl)-6-methylpyrimidin-4-yl)-4-((2-hydroxyethyl)sulfonamido)-2-(6-azaspiro[2.5]octan-6-yl)benzamide]	92 nM
Cc1cc(NC(=O)c2ccc(NS(=O)(=O)CCO)cc2N2CCC3(CC2)CC3)nc(N2CCCCC2)n1 [Example 11-36, 4-((2-Hydroxyethyl)sulfonamido)-N-(6-methyl-2-(piperidin-1-yl)pyrimidin-4-yl)-2-(6-azaspiro[2.5]octan-6-yl)benzamide]	82 nM
Cc1cc(NC(=O)c2ccc(NS(=O)(=O)CCO)cc2N2CCC3(CC2)CC3)nc(N2CCC(O)CC2)n1 [Example 11-37, 4-((2-Hydroxyethyl)sulfonamido)-N-(2-(4-hydroxypiperidin-1-yl)-6-methylpyrimidin-4-yl)-2-(6-azaspiro[2.5]octan-6-yl)benzamide]	144 nM
Cc1cc(NC(=O)c2ccc(NS(=O)(=O)CCO)cc2N2CCC3(CCC3)CC2)nc(N2CCC(F)(F)CC2)n1 [Example 11-40, N-(2-(4,4-Difluoropiperidin-1-yl)-6-methylpyrimidin-4-yl)-4-((2-hydroxyethyl)sulfonamido)-2-(7-azaspiro[3.5]nonan-7-yl)benzamide]	109 nM

The next compounds have a lower IC50 than those just listed; values first:

IC50	Compound
65 nM	Cc1cc(NC(=O)c2ccc(NS(=O)(=O)CCO)cc2N2CCC3(CC2)CC3)nc(N2CCC(C)(O)CC2)n1 [Example 11-38, N-(2-(4-Hydroxy-4-methylpiperidin-1-yl)-6-methylpyrimidin-4-yl)-4-((2-hydroxyethyl)sulfonamido)-2-(6-azaspiro[2.5]octan-6-yl)benzamide]
64 nM	Cc1cc(NC(=O)c2ccc(NS(=O)(=O)CCO)cc2N2CCC3(CC2)CC3)nc(N2CC(O)(C(F)(F)F)C2)n1 [Example 11-18, N-(2-(3-Hydroxy-3-(trifluoromethyl)azetidin-1-yl)-6-methylpyrimidin-4-yl)-4-((2-hydroxyethyl)sulfonamido)-2-(6-azaspiro[2.5]octan-6-yl)benzamide]
59 nM	Cc1cc(NC(=O)c2ccc(NS(=O)(=O)CCO)cc2N2CCC3(CC2)CC3)nc(N2CCC3CC32)n1 (stereo not shown) [Example 11-28, N-(2-(2-Azabicyclo[3.1.0]hexan-2-yl)-6-methylpyrimidin-4-yl)-4-((2-hydroxyethyl)sulfonamido)-2-(6-azaspiro[2.5]octan-6-yl)benzamide]
55.1 nM	Cc1cc(NC(=O)c2ccc(NS(C)(=O)=O)cc2N2CCC3(CC2)CC3)nc(N2CC(F)(F)C2)n1 [Example 11-24, N-(2-(3,3-Difluoroazetidin-1-yl)-6-methylpyrimidin-4-yl)-4-(methylsulfonamido)-2-(6-azaspiro[2.5]octan-6-yl)benzamide]
48.9 nM	Cc1cc(NC(=O)c2ccc(NS(=O)(=O)C3COC3)cc2N2CCC3(CC2)CC3)nc(N2CC(F)(F)C2)n1 [Example 11-23, N-(2-(3,3-Difluoroazetidin-1-yl)-6-methylpyrimidin-4-yl)-4-(oxetane-3-sulfonamido)-2-(6-azaspiro[2.5]octan-6-yl)benzamide]
48.3 nM	Cc1cc(NC(=O)c2ccc(NS(=O)(=O)CCO)cc2N2CCC3(CC2)CC3)nc(N2CC(O)C2)n1 [Example 11-20, N-(2-(3-Hydroxyazetidin-1-yl)-6-methylpyrimidin-4-yl)-4-((2-hydroxyethyl)sulfonamido)-2-(6-azaspiro[2.5]octan-6-yl)benzamide]
45 nM	Cc1cc(NC(=O)c2ccc(NS(=O)(=O)CCO)cc2N2CCC3(CC2)CC3)nc(N2CCCC(F)(F)C2)n1 [Example 11-39, N-(2-(3,3-Difluoropiperidin-1-yl)-6-methylpyrimidin-4-yl)-4-((2-hydroxyethyl)sulfonamido)-2-(6-azaspiro[2.5]octan-6-yl)benzamide]
43 nM	Cc1cc(NC(=O)c2ccc(NS(=O)(=O)CCO)cc2N2CCC3(CC2)CC3)nc(N2CCC[C@H](C#N)C2)n1 [Example 11-35, (S)-N-(2-(3-Cyanopiperidin-1-yl)-6-methylpyrimidin-4-yl)-4-((2-hydroxyethyl)sulfonamido)-2-(6-azaspiro[2.5]octan-6-yl)benzamide]
33 nM	Cc1cc(NC(=O)c2ccc(NS(=O)(=O)CCO)cc2N2CCC3(CC2)CC3)nc(N2CCC(F)(F)C2)n1 [Example 11-30, N-(2-(3,3-Difluoropyrrolidin-1-yl)-6-methylpyrim-4-yl)-4-((2-hydroxyethyl)sulfonamido)-2-(6-azaspiro[2.5]octan-6-yl)benzamide]
20 nM	Cc1cc(NC(=O)c2ccc(NS(=O)(=O)CCO)cc2N2CCC3(CC2)CC3)nc(N2CC[C@@](C)(F)C2)n1 [Example 11-27, (R)-N-(2-(3-Fluoro-3-methylpyrrolidin-1-yl)-6-methylpyrimidin-4-yl)-4-((2-hydroxyethyl)sulfonamido)-2-(6-azaspiro[2.5]octan-6-yl)benzamide]
20 nM	Cc1cc(NC(=O)c2ccc(NS(=O)(=O)CCO)cc2N2CCC3(CC2)CC3)nc(N2C[C@H]3C[C@H]3C2)n1 [Example 11-29, N-(2-((1R,5S)-3-Azabicyclo[3.1.0]hexan-3-yl)-6-methylpyrimidin-4-yl)-4-((2-hydroxyethyl)sulfonamido)-2-(6-azaspiro[2.5]octan-6-yl)benzamide]
17.6 nM	Cc1cc(NC(=O)c2ccc(NS(=O)(=O)CCO)cc2N2CCC3(CC2)CC3)nc(N2CCC3(CC3)C2)n1 [Example 11-25, 4-((2-Hydroxyethyl)sulfonamido)-N-(6-methyl-2-(5-azaspiro[2.4]heptan-5-yl)pyrimidin-4-yl)-2-(6-azaspiro[2.5]octan-6-yl)benzamide]

Reference: US11236069B2, “KIF18A inhibitors” (AMGEN INC., priority 2018, dated 2022)
